Assays:
[1] = tested on: MDA-MB-231 breast cancer cells; test: InnoCyte cell migration assay, MDA-MB-231; assay type: cell-based, human; conditions: MDA-MB-231 cells, 280 nM SMR peptide or 3 μM Latrunculin A, 24 hours
Procedure: (§1) 7-12. Cell migration assay. Cell migration assays were performed using the InnoCyte Cell Migration Assay (EMD Millipore Corporation, Temecula, Calif.) according to the manufacturer's instructions. Briefly, cell migration was monitored in the presence and absence of SMRwt peptides or latrunculin A (positive control inhibitor), which were added to the lower chamber of a 96-well plate. MCF-7 and MDA-MB-231 breast cancer cells and non-tumorigenic MCF-10A breast cells were harvested by 0.25% Trypsin-EDTA (Life Technologies) release and resuspended at 250,000500,000 cells/ml in serum-free RPMI 1640 media. A total of 25,000-50,000 cells was added to the upper chamber and allowed to migrate through an 8-μm pore-size membrane for 24 hours at 37° C. in a 5% CO2 atmosphere. Cells that migrated through the membrane were detached and labeled with Calcein-AM fluorescent dye. Fluorescence was measured using a Fluorescence Plate Reader (Molecular Devices, Sunnyvale, Calif.) with an excitation wavelength of 485 nm and an emission wavelength of 515 nm. The experiment was repeated in triplicate, and each conditioned experiment was performed in quadruplicate.

[2] = tested on: MCF-7 breast cancer cells; test: InnoCyte cell migration assay, MCF-7; assay type: cell-based, human; conditions: MCF-7 cells, 1120 nM SMR peptide or 3 μM Latrunculin A, 24 hours
Procedure: as §1

C/C1=C/C(=O)O[C@@H]2C[C@@H](CC[C@H](C)/C=C\C=C\CC1)O[C@@](O)([C@@H]1CSC(=O)N1)C2 [latrunculin A, reference compound]
reduced migration by [1]: 50.39%
reduced migration by [2]: 53.05%
